Measured values reported in patent publication US7265130B2, “NPY Y5 antagonist” (Shionogi & Co., Ltd., priority 1999, dated 2007).

Tests used:
[1] = biological target: T1, NPY Y1 receptor (Homo sapiens, UniProt P25929); assay: Affinity for NPY Y1 receptor (membranes from SK-N-MC cells); conditions: membranes from Y1-expression cells (human neuroblastoma, SK-N-MC); read-out: Binding IC50 for NPY Y1 receptor
T1 construct: membranes prepared from Y1-expression cells (human neuroblastoma, SK-N-MC); endogenous in cells; host or cells: SK-N-MC human neuroblastoma cells (membranes)
T1 sequence (P25929 1-384): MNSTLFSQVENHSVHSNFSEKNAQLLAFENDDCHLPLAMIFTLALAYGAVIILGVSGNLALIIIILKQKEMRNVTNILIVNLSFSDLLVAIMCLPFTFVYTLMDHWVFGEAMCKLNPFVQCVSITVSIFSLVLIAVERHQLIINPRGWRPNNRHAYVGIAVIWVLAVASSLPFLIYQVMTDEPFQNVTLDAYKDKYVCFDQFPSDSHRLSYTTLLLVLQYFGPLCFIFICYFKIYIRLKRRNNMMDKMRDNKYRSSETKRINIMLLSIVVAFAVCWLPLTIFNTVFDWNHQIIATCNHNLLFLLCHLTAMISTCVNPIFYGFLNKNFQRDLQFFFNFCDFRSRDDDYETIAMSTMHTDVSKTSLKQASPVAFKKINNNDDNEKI
Method: (§1) The membranes prepared from the above CHO cells expressing NPY Y5 receptor, the compound of the present invention and 30,000 cpm [^125I] peptide YY (60 pM of final concentration: Amersham) were incubated in the assay buffer (20 mM HEPES-Hanks buffer containing 0.1% bovine serum albumin, pH 7.4) at 25° C. for 2 hours, and then the mixture was filtered with a glassfilter GF/C treated with polyethyleneimine. After the glassfilter was washed with 50 mM Tris-HCl buffer (pH 7.4), the radioactivity on the filter was measured with a gamma counter. The non-specific binding was detected in the presence of 200 nM of peptide YY. The 50% inhibitory concentration of the test compound against the specific peptide YY binding (IC50 value) was calculated (Inui, A. et al. Endocrinology 131, 2090-2096 (1992)).
(§2) Using the membranes prepared from Y1-expression cells (human neuroblastoma, SK-N-MC) and the membranes prepared from Y2-expression cells (human neuroblastoma, SMS-KAN), the experiment was carried out in a similar way as Experiment 1 to determine the affinity for NPY Y1 receptor and NPY Y2 receptor.

[2] = biological target: T2, NPY Y2 receptor (Homo sapiens, UniProt P49146); assay: Affinity for NPY Y2 receptor (membranes from SMS-KAN cells); conditions: membranes from Y2-expression cells (human neuroblastoma, SMS-KAN); read-out: Binding IC50 for NPY Y2 receptor
T2 construct: membranes prepared from Y2-expression cells (human neuroblastoma, SMS-KAN); endogenous in cells; host or cells: SMS-KAN human neuroblastoma cells (membranes)
T2 sequence (P49146 1-381): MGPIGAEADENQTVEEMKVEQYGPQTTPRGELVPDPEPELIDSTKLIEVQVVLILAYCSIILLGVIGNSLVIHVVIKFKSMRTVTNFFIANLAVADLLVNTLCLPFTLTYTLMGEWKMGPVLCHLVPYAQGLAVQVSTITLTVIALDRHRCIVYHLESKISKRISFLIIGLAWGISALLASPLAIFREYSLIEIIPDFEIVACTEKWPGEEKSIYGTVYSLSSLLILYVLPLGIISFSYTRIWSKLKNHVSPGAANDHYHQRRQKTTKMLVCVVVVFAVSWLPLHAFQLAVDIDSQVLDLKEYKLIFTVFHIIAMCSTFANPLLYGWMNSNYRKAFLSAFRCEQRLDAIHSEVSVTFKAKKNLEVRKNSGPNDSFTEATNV
Method: as §1, §2

[3] = biological target: T3, human NPY Y5 receptor (Homo sapiens, UniProt Q15761); assay: Affinity for NPY Y5 receptor ([125I] peptide YY binding, CHO cell membranes); conditions: inhibition of specific [125I] peptide YY binding, membranes of CHO cells expressing NPY Y5 receptor
T3 construct: expressed in transfected cells
T3 sequence (Q15761 1-445): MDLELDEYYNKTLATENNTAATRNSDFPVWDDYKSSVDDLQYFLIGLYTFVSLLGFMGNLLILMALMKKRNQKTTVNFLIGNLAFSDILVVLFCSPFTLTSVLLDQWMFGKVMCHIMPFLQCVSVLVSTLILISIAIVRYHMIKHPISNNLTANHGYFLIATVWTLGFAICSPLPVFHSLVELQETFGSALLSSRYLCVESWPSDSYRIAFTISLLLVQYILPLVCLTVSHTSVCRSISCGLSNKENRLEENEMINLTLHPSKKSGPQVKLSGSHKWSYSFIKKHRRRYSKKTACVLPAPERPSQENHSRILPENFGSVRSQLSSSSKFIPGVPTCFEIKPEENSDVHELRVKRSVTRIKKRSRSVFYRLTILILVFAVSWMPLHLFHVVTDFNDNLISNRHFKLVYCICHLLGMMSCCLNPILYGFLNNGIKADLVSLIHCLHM
Summary of the method: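 Membranes from CHO cells stably expressing human NPY Y5 receptor incubated with test compound and [125I] peptide YY (60 pM final) in HEPES-Hanks buffer with 0.1% BSA, pH 7.4, 25° C for 2 hours. Filter-bound radioactivity counted; non-specific binding with 200 nM peptide YY; IC50 against specific binding calculated.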

[4] = biological target: T3, human NPY Y5 receptor; assay: cAMP production inhibitory activity in CHO cells; assay type: cell-based; conditions: against 50 nM NPY inhibition of forskolin stimulated cAMP, CHO cells expressing human NPY Y5 receptor
Summary of the method: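 CHO cells expressing human NPY Y5 receptor preincubated 20 min at 37 °C with 2.5 mM IBMX, then with compound for 5 min. Stimulated with 50 nM NPY plus 10 μM forskolin for 30 min. Reaction stopped with 1N HCl; supernatant cAMP measured by EIA.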

SMILES | IC50 [1] [nM] | IC50 [2] [nM] | IC50 [3] [nM] | IC50 [4] [nM]
CCCCc1ccc(NC(=O)CCCNS(=O)(=O)C(C)(C)C)cc1 [Compound I-27] | ≥ 100000 | ≥ 100000 |  | 
CCCCc1ccc(C(=O)NC2CCC(NS(=O)(=O)C(C)(C)C)CC2)cc1 (stereo not shown) [Compound I-32] | ≥ 100000 | ≥ 100000 |  | 
CC(C)(C)S(=O)(=O)NC1CCC(C(=O)Nc2ccc(N3CCOCC3)cc2)CC1 (stereo not shown) [Compound I-41] | ≥ 100000 | ≥ 100000 | 5.3 | 38.2
CC(C)(C)S(=O)(=O)NC1CCC(C(=O)Nc2ccc(N3CCCCC3)cc2)CC1 (stereo not shown) [Compound I-45] | ≥ 100000 | ≥ 100000 | 1.2 | 27.9
CC(C)(C)S(=O)(=O)NC1CCC(C(=O)Nc2ccc(F)cc2)CC1 (stereo not shown) [Compound I-48] | ≥ 100000 | ≥ 100000 |  | 
CC(C)(C)S(=O)(=O)NC1CCC(C(=O)Nc2ccc(Br)cc2)CC1 (stereo not shown) [Compound I-63] | ≥ 100000 | ≥ 100000 | 1.3 | 50
CC(C)(C)S(=O)(=O)NC1CCC(C(=O)Nc2ccc3c(c2)OCO3)CC1 (stereo not shown) [Compound I-64] | ≥ 100000 | ≥ 100000 | 2.2 | 80
CC(C)NC(=O)c1cccc(NC(=O)C2CCC(NS(=O)(=O)C(C)C)CC2)c1 (stereo not shown) [Ia-192] |  |  | 5.9 | 200
CC(C)NC(=O)c1ccc(NC(=O)C2CCC(NS(=O)(=O)C(C)C)CC2)cc1 (stereo not shown) [Ia-193] |  |  | 1.4 | 43
CC(C)(C)S(=O)(=O)NC1CCC(C(=O)Nc2ccc(-c3cnco3)cc2)CC1 (stereo not shown) [Ia-195] |  |  | 1.4 | 31
Cc1cc(C(=O)NC(C)C)ccc1NC(=O)C1CCC(NS(=O)(=O)C(C)(C)C)CC1 (stereo not shown) [Ia-201] |  |  | 3.1 | 74
CC(C)(C)S(=O)(=O)NC1CCC(C(=O)Nc2ccc(OC3CCOC3)cc2)CC1 (stereo not shown) [Ia-205] |  |  | 2.4 | 99
CC(C)(C)S(=O)(=O)NC1CCC(C(=O)Nc2ccc(OCC3CCCCO3)cc2)CC1 (stereo not shown) [Ia-206] |  |  | 1.9 | 460
CC(C)(C)S(=O)(=O)NC1CCC(C(=O)Nc2ccc(N3CCCS3(=O)=O)cc2)CC1 (stereo not shown) [Ia-208] |  |  | 1.2 | 9.7
CC(C)(C)S(=O)(=O)Nc1ccc(C(=O)Nc2ccc(-c3ccco3)cc2)cc1 [Ia-210] |  |  | 2.8 | 99
CC(C)(C)S(=O)(=O)Nc1ccc(C(=O)Nc2ccc(-c3ncco3)cc2)cc1 [Ia-211] |  |  | 4.8 | 240
CC(C)(C)S(=O)(=O)NC1CCN(C(=O)Nc2ccc(C(F)(F)F)cc2)CC1 [Ia-219] |  |  | 2.5 | 28
CC(C)S(=O)(=O)NC1CCN(C(=O)Nc2ccc(C(F)(F)F)cc2)CC1 [Ia-222] |  |  | 3.7 | 18
CC(C)(C)S(=O)(=O)NC1CCN(C(=O)Nc2ccc(OC3CCOCC3)cc2)CC1 [Ia-225] |  |  | 3.4 | 20

Continued by falling IC50 [3], values first:

IC50 [1] [nM] | IC50 [2] [nM] | IC50 [3] [nM] | IC50 [4] [nM] | SMILES
 |  | 1.1 | 15 | CC(C)S(=O)(=O)NC1CCN(C(=O)Nc2ccc(OC3CCOCC3)cc2)CC1 [Ia-237]
 |  | 1 | 6.3 | CC(C)S(=O)(=O)NC1CCC(C(=O)Nc2ccc(-c3ncco3)cc2)CC1 (stereo not shown) [Ia-204]
 |  | 0.91 | 28 | CC(C)(C)S(=O)(=O)Nc1ccc(C(=O)Nc2ccc(-c3cccs3)cc2)cc1 [Ia-213]
≥ 100000 | ≥ 100000 | 0.8 | 10.5 | CCn1c2ccccc2c2cc(NC(=O)C3CCC(NS(=O)(=O)C(C)(C)C)CC3)ccc21 (stereo not shown) [Compound I-46]
≥ 100000 | ≥ 100000 | 0.8 | 35 | CC(C)(C)S(=O)(=O)NC1CCC(C(=O)Nc2ccc(N3CC=CCC3)cc2)CC1 (stereo not shown) [Compound I-59]
 |  | 0.79 | 31 | CC(C)(C)S(=O)(=O)NC1CCC(C(=O)Nc2ccc(C3(O)CCOCC3)cc2)CC1 (stereo not shown) [Ia-247]
≥ 100000 | ≥ 100000 | 0.6 | 14.9 | CC(C)(C)S(=O)(=O)NC1CCC(C(=O)Nc2ccc(I)cc2)CC1 (stereo not shown) [Compound I-47]
 |  | 0.55 | 5.9 | CC(C)(C)S(=O)(=O)NC1CCC(C(=O)Nc2cccc(N3CCCS3(=O)=O)c2)CC1 (stereo not shown) [Ia-207]
 |  | 0.52 | 2.6 | CC(C)(C)S(=O)(=O)Nc1ccc(C(=O)Nc2ccc(OC3CCCC3)cc2)cc1 [Ia-212]
 |  | 0.47 | 1.5 | CC(C)(C)S(=O)(=O)NC1CCN(C(=O)Nc2ccc(C3CCCCC3)cc2)CC1 [Ia-221]
 |  | 0.44 | 2.5 | CC(C)S(=O)(=O)NC1CCC(C(=O)Nc2cccc(OCC3CC3)c2)CC1 (stereo not shown) [Ia-197]
≥ 100000 | ≥ 100000 | 0.4 | 8.1 | CC(C)(C)S(=O)(=O)NC1CCC(C(=O)Nc2ccc(N3CCCC3)cc2)CC1 (stereo not shown) [Compound I-49]
 |  | 0.39 | 1.3 | CC(C)S(=O)(=O)NC1CCC(C(=O)Nc2ccc(OCC3CC3)cc2)CC1 (stereo not shown) [Ia-196]
 |  | 0.37 | 3.4 | CC(C)(C)S(=O)(=O)NC1CCC(C(=O)Nc2ccc(-c3cccs3)cc2)CC1 (stereo not shown) [Ia-202]
 |  | 0.37 | 21 | CC(C)S(=O)(=O)NCCCCC(=O)Nc1ccc2c(c1)C(=O)N(c1ccccc1)C2=O [Ia-226]
 |  | 0.27 | 17 | CC(C)(C)S(=O)(=O)NC1CCC(C(=O)Nc2ccc(C3CCOCC3)cc2)CC1 (stereo not shown) [Ia-248]
≥ 100000 | ≥ 100000 | 0.26 | 5.3 | CC(C)(C)S(=O)(=O)NC1CCC(C(=O)Nc2ccc(-n3cccc3)cc2)CC1 (stereo not shown) [Compound I-61]
 |  | 0.26 | 20 | CC(C)(C)S(=O)(=O)NC1CCC(C(=O)Nc2cccc(C3CCOCC3)c2)CC1 (stereo not shown) [Ia-246]
 |  | 0.23 | 2.6 | CC(C)S(=O)(=O)NC1CCC(C(=O)Nc2ccc(OC3CCCC3)cc2)CC1 (stereo not shown) [Ia-198]
 |  | 0.22 | 8.1 | CC(C)S(=O)(=O)NC1CCC(C(=O)Nc2ccc(-c3ccco3)cc2)CC1 (stereo not shown) [Ia-194]
 |  | 0.2 | 2.6 | CC(C)(C)S(=O)(=O)NC1CCC(C(=O)Nc2ccc(C3CCCCC3)cc2)CC1 (stereo not shown) [Ia-203]
≥ 100000 | ≥ 100000 | 0.1 |  | COc1ccc(NC(=O)C2CCC(NS(=O)(=O)C(C)(C)C)CC2)cc1 (stereo not shown) [Ia-16]
 |  | 0.1 | 1.2 | CC(C)S(=O)(=O)NC1CCN(C(=O)Nc2ccc(C3CCCCC3)cc2)CC1 [Ia-224]
